Measured values published in ChEMBL document CHEMBL3525899, “Identification of the cytochrome P450 and other enzymes involved in the in vitro oxidative metabolism of a novel antidepressant, Lu AA21004” (Drug Metab Dispos, 2012).

How the values were obtained:
Liver = assay: Drug level in human liver S9 fractions treated with (3-methyl-4-(2-(piperazin-1-yl)phenylthio)phenyl)methanol at 8 to 50 uM after 20 mins by HPLC/MS-MS analysis in absence of NADPH regenerating system with NAD+; format: ADME, tissue-based; conditions: s9, 20 min
Cytochrome P450 2D6 [1] = biological target: T1, Cytochrome P450 2D6 (Homo sapiens, UniProt P10635); assay: Activity of human recombinant CYP2D6 expressed in microsomes isolated from human AHH-1 cells assessed as enzyme-mediated compound formation treated with (3-methyl-4-(2-(piperazin-1-yl)phenylthio)phenyl)methanol at 8 to 50 uM after 120 mins by HPLC/MS-MS analysis in presence of NADPH regenerating system with NADP+; format: ADME, cell-free; conditions: 2 h
Liver microsome [2] = assay: Drug level in human liver microsomes treated with (3-methyl-4-(2-(piperazin-1-yl)phenylthio)phenyl)methanol at 50 uM after 20 mins by HPLC/MS-MS analysis in absence of NADPH regenerating system with NADP+; format: ADME
Liver microsome [3] = assay: Drug level in phenotyped human liver microsomes treated with (3-methyl-4-(2-(piperazin-1-yl)phenylthio)phenyl)methanol at 8 to 50 uM after 15 mins by HPLC/MS-MS analysis in presence of NADPH regenerating system with NADP+; format: ADME; conditions: 0.25 h
[4] = Drug level in pooled human liver S9 fractions treated with (3-methyl-4-(2-(piperazin-1-yl)phenylthio)phenyl)methanol at 2 to 50 uM after 20 mins by HPLC/MS-MS analysis in presence of NADPH regenerating system with NAD+ and xanthine oxidase inhibitor allopurinol; format: ADME, subcellular, Liver S9 fraction; conditions: s9, 20 min
Cytochrome P450 2D6 [5] = biological target: T1, Cytochrome P450 2D6; assay: Activity of human recombinant CYP2D6 expressed in microsomes isolated from human AHH-1 cells assessed as enzyme-mediated compound formation treated with Lu AA21004 at 8 to 50 uM after 120 mins by HPLC/MS-MS analysis in presence of NADPH regenerating system with NADP+; format: ADME, cell-free; conditions: 2 h
Liver microsome [6] = assay: Drug level in human liver microsomes treated with (3-methyl-4-(2-(piperazin-1-yl)phenylthio)phenyl)methanol at 50 uM after 20 mins by HPLC/MS-MS analysis in presence of NADPH regenerating system with NADP+; format: ADME
Liver microsome [7] = assay: Drug level in pooled human liver microsomes treated with Lu AA21004 at 100 uM after 30 to 180 mins by HPLC/MS-MS analysis in presence of NADPH regenerating system with NADP+; format: ADME
[8] = Drug level in human liver S9 fractions treated with (3-methyl-4-(2-(piperazin-1-yl)phenylthio)phenyl)methanol at 8 to 50 uM after 20 mins by HPLC/MS-MS analysis in presence of NADPH regenerating system with NAD+; format: ADME, subcellular, Liver S9 fraction; conditions: s9, 20 min
Liver microsome [9] = assay: Drug level in phenotyped human liver microsomes treated with Lu AA21004 at 8 to 50 uM after 60 mins by HPLC/MS-MS analysis in presence of NADPH regenerating system with NADP+; format: ADME; conditions: 1 h
Cytochrome P450 2C19 = Cytochrome P450 2C19 (Homo sapiens, UniProt P33261); assay: Activity of human recombinant CYP2C19 expressed in microsomes isolated from human AHH-1 cells assessed as enzyme-mediated compound formation treated with Lu AA21004 at 8 to 50 uM after 120 mins by HPLC/MS-MS analysis in presence of NADPH regenerating system with NADP+; format: ADME, cell-free; conditions: 2 h
Cytochrome P450 2C9 = Cytochrome P450 2C9 (Homo sapiens, UniProt P11712); assay: Activity of human recombinant CYP2C9 expressed in microsomes isolated from human AHH-1 cells assessed as enzyme-mediated compound formation treated with Lu AA21004 at 8 to 50 uM after 120 mins by HPLC/MS-MS analysis in presence of NADPH regenerating system with NADP+; format: ADME, cell-free; conditions: 2 h

Measured: Drug metabolism

T1 sequence (P10635 whole entry): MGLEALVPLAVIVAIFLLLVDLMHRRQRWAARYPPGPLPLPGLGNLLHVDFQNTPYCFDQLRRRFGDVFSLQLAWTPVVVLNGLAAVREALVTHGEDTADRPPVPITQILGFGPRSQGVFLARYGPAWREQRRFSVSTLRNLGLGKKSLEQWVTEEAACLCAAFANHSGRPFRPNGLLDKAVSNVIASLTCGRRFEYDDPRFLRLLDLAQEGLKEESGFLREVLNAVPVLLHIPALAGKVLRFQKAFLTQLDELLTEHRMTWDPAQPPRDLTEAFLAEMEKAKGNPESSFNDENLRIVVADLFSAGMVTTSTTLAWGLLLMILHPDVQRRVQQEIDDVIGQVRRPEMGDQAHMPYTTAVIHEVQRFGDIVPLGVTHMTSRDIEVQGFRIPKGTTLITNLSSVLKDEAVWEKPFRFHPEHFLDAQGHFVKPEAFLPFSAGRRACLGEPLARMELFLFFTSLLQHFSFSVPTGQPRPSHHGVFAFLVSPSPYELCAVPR
Chain of Cytochrome P450 2C9 (P11712 whole entry): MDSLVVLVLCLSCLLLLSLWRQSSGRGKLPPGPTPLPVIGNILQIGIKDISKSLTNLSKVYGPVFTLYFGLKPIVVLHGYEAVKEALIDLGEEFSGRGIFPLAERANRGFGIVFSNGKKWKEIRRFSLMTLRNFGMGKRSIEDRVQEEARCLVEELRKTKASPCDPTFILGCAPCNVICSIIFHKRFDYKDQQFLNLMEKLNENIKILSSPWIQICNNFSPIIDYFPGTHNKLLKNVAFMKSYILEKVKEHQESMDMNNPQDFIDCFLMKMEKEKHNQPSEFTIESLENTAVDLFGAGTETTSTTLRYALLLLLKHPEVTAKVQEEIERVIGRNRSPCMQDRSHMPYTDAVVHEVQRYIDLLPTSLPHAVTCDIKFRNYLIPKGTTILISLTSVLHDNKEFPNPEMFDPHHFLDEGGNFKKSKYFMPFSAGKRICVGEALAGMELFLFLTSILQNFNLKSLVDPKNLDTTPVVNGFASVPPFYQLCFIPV
Chain of Cytochrome P450 2C19 (P33261 whole entry): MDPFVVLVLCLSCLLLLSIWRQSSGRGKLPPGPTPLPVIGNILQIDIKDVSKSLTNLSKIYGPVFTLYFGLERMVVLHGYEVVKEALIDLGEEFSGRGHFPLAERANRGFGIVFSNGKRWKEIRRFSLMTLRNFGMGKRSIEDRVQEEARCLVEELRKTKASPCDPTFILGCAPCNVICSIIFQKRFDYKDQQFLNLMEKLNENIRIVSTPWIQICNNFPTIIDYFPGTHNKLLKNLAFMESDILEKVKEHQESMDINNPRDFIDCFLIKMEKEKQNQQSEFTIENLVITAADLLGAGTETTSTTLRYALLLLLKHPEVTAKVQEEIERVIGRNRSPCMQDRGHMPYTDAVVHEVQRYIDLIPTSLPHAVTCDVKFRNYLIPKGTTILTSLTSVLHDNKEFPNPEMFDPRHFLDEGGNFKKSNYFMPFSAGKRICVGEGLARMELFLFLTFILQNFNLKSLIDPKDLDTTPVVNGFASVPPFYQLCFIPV

Cc1cc(C(=O)O)ccc1Sc1ccccc1N1CCNCC1
not listed: Cytochrome P450 2C19 | Cytochrome P450 2C9
metabolite_detected: all other assays above

Cc1ccc(Sc2cc([O-])ccc2N2CCNCC2)c(C)c1.[Na+]
metabolite_detected: Cytochrome P450 2C19 | Cytochrome P450 2C9 | Cytochrome P450 2D6 [5] | Liver microsome [7] | Liver microsome [9]
